This is an account of results in ChEMBL document CHEMBL5291721, “A preclinical secondary pharmacology resource illuminates target-adverse drug reaction associations of marketed drugs” (Nat Commun, 2023).

Each structure is given as a SMILES string.

The target of experiment [1] is T1, Alpha-1A adrenergic receptor (Homo sapiens, UniProt P35348).
T1 sequence (P35348 whole entry): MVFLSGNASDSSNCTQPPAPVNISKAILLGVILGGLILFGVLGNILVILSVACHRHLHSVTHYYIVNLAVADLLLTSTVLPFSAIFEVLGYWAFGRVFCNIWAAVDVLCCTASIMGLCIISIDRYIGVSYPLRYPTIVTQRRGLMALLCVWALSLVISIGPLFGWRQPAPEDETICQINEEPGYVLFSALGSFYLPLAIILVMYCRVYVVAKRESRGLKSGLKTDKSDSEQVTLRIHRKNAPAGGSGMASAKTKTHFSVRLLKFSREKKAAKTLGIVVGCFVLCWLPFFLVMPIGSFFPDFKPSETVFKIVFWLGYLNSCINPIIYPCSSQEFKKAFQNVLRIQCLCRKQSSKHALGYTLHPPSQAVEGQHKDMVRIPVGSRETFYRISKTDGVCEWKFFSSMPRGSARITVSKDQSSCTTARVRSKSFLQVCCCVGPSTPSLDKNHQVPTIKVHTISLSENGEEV
It is filed as functional, cell-based.

Experiment [2] concerns the target T2, Alpha-2A adrenergic receptor (Homo sapiens, UniProt P08913).
T2 sequence (P08913 whole entry): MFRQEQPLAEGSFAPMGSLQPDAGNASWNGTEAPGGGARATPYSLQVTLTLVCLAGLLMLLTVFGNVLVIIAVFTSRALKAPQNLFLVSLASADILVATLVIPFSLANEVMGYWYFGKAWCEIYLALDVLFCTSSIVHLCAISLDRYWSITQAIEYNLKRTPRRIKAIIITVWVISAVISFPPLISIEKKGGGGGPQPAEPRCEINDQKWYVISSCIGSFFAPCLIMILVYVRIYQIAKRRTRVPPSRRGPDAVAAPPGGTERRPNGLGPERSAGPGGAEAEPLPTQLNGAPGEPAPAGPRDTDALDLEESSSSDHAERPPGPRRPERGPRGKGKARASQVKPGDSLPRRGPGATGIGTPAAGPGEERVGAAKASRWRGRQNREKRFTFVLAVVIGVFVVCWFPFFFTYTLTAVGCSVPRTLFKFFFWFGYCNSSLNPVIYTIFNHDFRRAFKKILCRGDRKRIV

Experiment [3] has as its target T3, Gastrin/cholecystokinin type B receptor (Homo sapiens, UniProt P32239).
T3 sequence (P32239 whole entry): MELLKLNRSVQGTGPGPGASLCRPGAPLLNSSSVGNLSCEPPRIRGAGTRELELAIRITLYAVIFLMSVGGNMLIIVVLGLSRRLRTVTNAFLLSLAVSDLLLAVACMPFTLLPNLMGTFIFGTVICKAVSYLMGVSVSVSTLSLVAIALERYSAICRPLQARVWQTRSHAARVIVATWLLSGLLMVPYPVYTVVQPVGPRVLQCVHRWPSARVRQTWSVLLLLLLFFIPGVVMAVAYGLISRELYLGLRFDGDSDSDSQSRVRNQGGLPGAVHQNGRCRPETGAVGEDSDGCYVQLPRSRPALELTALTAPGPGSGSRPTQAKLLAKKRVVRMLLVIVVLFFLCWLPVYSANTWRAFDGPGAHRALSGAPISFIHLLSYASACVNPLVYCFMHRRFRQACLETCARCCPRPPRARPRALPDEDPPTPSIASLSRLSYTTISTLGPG

Experiment [4] concerns the target T4, 5-hydroxytryptamine receptor 1A (Homo sapiens, UniProt P08908).
T4 sequence (P08908 whole entry): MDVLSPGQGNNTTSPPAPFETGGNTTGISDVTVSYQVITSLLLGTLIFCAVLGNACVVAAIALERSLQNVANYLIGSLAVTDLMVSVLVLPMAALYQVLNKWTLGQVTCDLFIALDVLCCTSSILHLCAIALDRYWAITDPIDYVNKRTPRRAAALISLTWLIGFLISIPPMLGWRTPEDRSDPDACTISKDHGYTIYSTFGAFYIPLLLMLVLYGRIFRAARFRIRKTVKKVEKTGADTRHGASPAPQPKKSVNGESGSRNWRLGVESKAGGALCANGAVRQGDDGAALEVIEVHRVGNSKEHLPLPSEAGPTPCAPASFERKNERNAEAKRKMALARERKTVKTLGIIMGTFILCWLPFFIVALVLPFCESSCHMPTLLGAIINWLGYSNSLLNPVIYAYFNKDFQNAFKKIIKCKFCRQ
It is filed as functional, cell-based.
Further: assay procedure not described here.

Take `OC[C@H]1NC[C@H](O)[C@@H](O)[C@H]1O`: the AC50 in experiment [1] and in experiment [2] was more than 30 µM throughout.

Regarding `O=C(O)[C@@H](S)[C@@H](S)C(=O)O`, in experiment [2], the AC50 – broadly, the concentration giving half of the maximal activity seen – was more than 30 µM.

In the case of `C=CC1=C(C(=O)O)N2C(=O)[C@@H](NC(=O)/C(=N\O)c3csc(N)n3)[C@H]2SC1`, the half-maximal activity concentration (AC50) is more than 30 µM in experiment [3] and more than 10 µM in experiment [4].

In the case of `CC#CC(=O)N1CCC[C@H]1c1nc(-c2ccc(C(=O)Nc3ccccn3)cc2)c2c(N)nccn12` [ACALABRUTINIB], the AC50 in experiment [1] and in experiment [2] was more than 30 µM in each case.

`O=C(O)COC(=O)Cc1ccccc1Nc1c(Cl)cccc1Cl` [ACECLOFENAC]: the AC50 was more than 30 µM in experiment [3] and more than 10 µM in experiment [4].

`C=CCOc1ccc(CC(=O)O)cc1Cl` [ALCLOFENAC]: the AC50 in experiment [1] and in experiment [2] was more than 30 µM in each case.

Take `NCCCNCCSP(=O)(O)O` [AMIFOSTINE]: the AC50 in experiment [3] and in experiment [4] was more than 30 µM each time.

`C[C@H](CS)C(=O)N1CCC[C@H]1C(=O)O` [CAPTOPRIL] had an AC50 in experiment [3] of more than 30 µM.

For the compound `NC(=O)C1(N2CCCCC2)CCN(CCCN2c3ccccc3CCc3ccccc32)CC1` [CARPIPRAMINE], the concentration at half-maximal activity (AC50) in experiment [1] turned out to be 13.7 µM; in experiment [2], 0.208 µM.

As for `O=C(Cc1cccs1)N[C@@H]1C(=O)N2C(C(=O)[O-])=C(C[n+]3ccccc3)CS[C@H]12` [CEPHALORIDINE], the AC50 in experiment [4] and in experiment [2] was more than 30 µM each time.

As to `C[C@H](CCC(=O)O)[C@H]1CC[C@H]2[C@@H]3[C@H](O)C[C@@H]4C[C@H](O)CC[C@]4(C)[C@H]3CC[C@]12C` [CHENODIOL], the concentration at half-maximal activity (AC50) in experiment [4] was more than 30 µM.

Turning to `CN1CCN(C(c2ccccc2)c2ccc(Cl)cc2)CC1` (configuration not stated) [CHLORCYCLIZINE], the concentration at half-maximal activity (AC50) was more than 30 µM in experiment [1] and 3.1 µM in experiment [2].

Take `CN(C)CCCC1(c2ccc(F)cc2)OCc2cc(C#N)ccc21` (configuration not stated) [CITALOPRAM]: the figures for the AC50 in experiment [3], in experiment [4] and in experiment [2] were more than 30 µM, more than 10 µM and more than 30 µM, respectively.

For the compound `CCCCCCCCCCCCCCCC(=O)OC[C@H](COP(=O)([O-])OCC[N+](C)(C)C)OC(=O)CCCCCCCCCCCCCCC` [COLFOSCERIL PALMITATE], the AC50 in experiment [1] and in experiment [2] was more than 30 µM throughout.

In the case of `O=P1(N(CCCl)CCCl)NCCCO1` (configuration not stated) [CYCLOPHOSPHAMIDE ANHYDROUS], the AC50 in experiment [1] and in experiment [2] was more than 30 µM throughout.

Consider `CC(C)Nc1cccnc1N1CCN(C(=O)c2cc3cc(NS(C)(=O)=O)ccc3[nH]2)CC1` [DELAVIRDINE], for which the AC50 in experiment [1] was more than 30 µM; in experiment [2] it was 13.4 µM.

For the compound `C[C@@H](CN1CC(=O)NC(=O)C1)N1CC(=O)NC(=O)C1` [DEXRAZOXANE], the AC50 in experiment [1] and in experiment [2] was more than 30 µM in each case.

On to `C[C@]12CC[C@@H]3c4ccc(OC(=O)N(CCCl)CCCl)cc4CC[C@H]3[C@@H]1CC[C@@H]2OP(=O)(O)O` [ESTRAMUSTINE PHOSPHATE], for which the half-maximal activity concentration (AC50) in experiment [1] and in experiment [2] was more than 30 µM throughout.

Take `O=c1[nH]c2ccccc2n1CCN1CCN(c2cccc(C(F)(F)F)c2)CC1` [FLIBANSERIN]: the half-maximal activity concentration (AC50) in experiment [1] is more than 30 µM; in experiment [2], 10.3 µM.

Turning to `C[C@]12CCC(=O)C=C1CC[C@H]1[C@@H]3CC[C@](O)(C(=O)CO)[C@@]3(C)C[C@H](O)[C@@]12F` [FLUDROCORTISONE], the values for the AC50 in experiment [3] and in experiment [4] were more than 30 µM and more than 10 µM, respectively.

As for `O=c1[nH]cc(F)c(=O)[nH]1` [FLUOROURACIL], the AC50 in experiment [1], in experiment [3] and in experiment [2] was more than 30 µM each time.

For `CCOC(=O)Nc1ccc(NCc2ccc(F)cc2)nc1N` [FLUPIRTINE], the AC50 in experiment [3] is more than 30 µM; in experiment [4], 22 µM.

For the compound `O=C(O)[C@H](O)[C@@H](O)[C@H](O)[C@H](O)CO` [GLUCONIC ACID], the concentration at half-maximal activity (AC50) in experiment [1] and in experiment [2] was more than 30 µM each time.

In the case of `N=C(N)NCC1COc2ccccc2O1` (configuration not stated) [GUANOXAN], the AC50 in experiment [1] was more than 30 µM; in experiment [2], 0.15 µM.

As for `OCCOCCN1CCN(C(c2ccccc2)c2ccc(Cl)cc2)CC1` (configuration not stated) [HYDROXYZINE], the half-maximal activity concentration (AC50) was more than 30 µM in experiment [3] and more than 10 µM in experiment [4].

For the compound `N#Cc1ccnc(N2C(=O)CC[C@H]2C(=O)N(c2cncc(F)c2)[C@H](C(=O)NC2CC(F)(F)C2)c2ccccc2Cl)c1` [IVOSIDENIB], the half-maximal activity concentration (AC50) in experiment [1] and in experiment [2] was more than 30 µM throughout.

As for `CNC1(c2ccccc2Cl)CCCCC1=O` (configuration not stated) [KETAMINE], the concentration at half-maximal activity (AC50) in experiment [1] and in experiment [2] was more than 30 µM each time.

For `Nc1nnc(-c2cccc(Cl)c2Cl)c(N)n1` [LAMOTRIGINE], the AC50 in experiment [3] is more than 30 µM; in experiment [4], more than 10 µM.

`O=NN(CCCl)C(=O)NC1CCCCC1` [LOMUSTINE]: the AC50 in experiment [1] is 14.1 µM; in experiment [2], 3.5 µM.

On to `CCCCCCO[C@@H](C)c1cccc(-c2csc(NC(=O)c3cc(Cl)c(/C=C(\C)C(=O)O)c(Cl)c3)n2)c1OC` [LUSUTROMBOPAG], for which the half-maximal activity concentration (AC50) in experiment [1] and in experiment [2] was more than 30 µM in each case.

For `Cc1cc(C)cc(OCC2CNC(=O)O2)c1` (configuration not stated) [METAXALONE], the concentration at half-maximal activity (AC50) in experiment [1] and in experiment [2] was more than 30 µM throughout.

Take `CO[C@@]1(NC(=O)C(C(=O)O)c2ccc(O)cc2)C(=O)N2C(C(=O)O)=C(CSc3nnnn3C)CO[C@@H]21` (some centres not stated) [MOXALACTAM]: the AC50 in experiment [1] and in experiment [2] was more than 30 µM each time.

On to `CCCCCCCC/C=C\CCCCCCCC(=O)O` [OLEIC ACID], for which the AC50 in experiment [1] and in experiment [2] was more than 30 µM throughout.

On to `C#CCN(C)Cc1ccccc1` [PARGYLINE], for which the AC50 in experiment [2] was more than 30 µM.

For `CC1=C(C/C=C(\C)CCC[C@H](C)CCC[C@H](C)CCCC(C)C)C(=O)c2ccccc2C1=O` [PHYTONADIONE], the AC50 in experiment [1] and in experiment [2] was more than 30 µM throughout.

`NC(=O)C1(N2CCCCC2)CCN(CCCC(=O)c2ccc(F)cc2)CC1` [PIPAMPERONE]: the AC50 is more than 30 µM in experiment [1] and 5.47 µM in experiment [2].

On to `COc1cccc2c1C(=O)c1c(O)c3c(c(O)c1C2=O)C[C@@](O)(C(=O)CO)C[C@@H]3O[C@H]1C[C@H](N)[C@H](O[C@@H]2CCCCO2)[C@H](C)O1` [PIRARUBICIN], for which the AC50 in experiment [1] was more than 1 µM; in experiment [2], more than 30 µM.

As for `CC(C)(Oc1ccc(Cl)cc1)C(=O)NC(=O)NCN1CCOCC1` [PLAFIBRIDE], the AC50 in experiment [1] and in experiment [2] was more than 30 µM each time.

Consider `CC(C)NC[C@H](O)COc1ccc(O)cc1` [PRENALTEROL], for which the half-maximal activity concentration (AC50) in experiment [1] and in experiment [2] was more than 30 µM in each case.

`CCOc1ccccc1OCCN[C@H](C)Cc1ccc(OC)c(S(N)(=O)=O)c1` [TAMSULOSIN]: the AC50 in experiment [3] was more than 30 µM; in experiment [4], 0.02 µM.

For the compound `CN1CCC(N(Cc2cccs2)c2ccccc2)CC1` [THENALIDINE], the half-maximal activity concentration (AC50) in experiment [1] is more than 30 µM; in experiment [2], 8.45 µM.

With `Cc1ccc(C(C)C)c(O)c1` [THYMOL], the concentration at half-maximal activity (AC50) in experiment [1] and in experiment [2] was more than 30 µM each time.

Take `CN(C)CCN(Cc1ccccc1)c1ccccn1` [TRIPELENNAMINE]: the concentration at half-maximal activity (AC50) is more than 30 µM in experiment [1], more than 10 µM in experiment [4] and 3.08 µM in experiment [2].

Regarding `Cc1cccc(C)c1NC(=O)c1cc(S(N)(=O)=O)c(Cl)cc1O` [XIPAMIDE], the AC50 in experiment [1] and in experiment [2] was more than 30 µM each time.
